In ChEMBL document CHEMBL1201862, “PubChem BioAssay data set” (2004):
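Grown in 96-well plates, cells were treated for 48 hours with each compound at five concentrations. Insufficient inhibition: endpoint recorded as highest concentration tested. The concentration for 50% growth inhibition is given as GI50.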 Active and inactive are the calls of the source. No stated cut-off is given here; in the data, active = GI50 up to about 1.1 µM and inactive = higher.

What was measured:
Assay in all cases: NCI tumour cell line growth inhibition, 48 h
[1] = test system: HOP-92
[2] = test system: SK-MEL-5
[3] = test system: BT-549
[4] = test system: SK-MEL-2
[5] = test system: NCI-H226
[6] = test system: NCI-H460
[7] = test system: CAKI-1
[8] = test system: T47D
[9] = test system: TK-10
[10] = test system: OVCAR-3
[11] = test system: IGROV-1
[12] = test system: PC-3
[13] = test system: MCF7
[14] = test system: SN12C
[15] = test system: HL-60
[16] = test system: SF-295
[17] = test system: SNB-75
[18] = test system: Hs-578T
[19] = test system: SR
[20] = test system: NCI-H522

SMILES | GI50 [1] | GI50 [2] | GI50 [3] | GI50 [4] | GI50 [5] | GI50 [6] | GI50 [7] | GI50 [8] | GI50 [9] | GI50 [10] | GI50 [11] | GI50 [12] | GI50 [13] | GI50 [14] | GI50 [15] | GI50 [16] | GI50 [17] | GI50 [18] | GI50 [19] | GI50 [20]
CCOC(=O)N(CC)c1c(C(F)(F)F)cc(-c2ccccc2)[nH]c1=O | 50.7 µM (inactive) | 41.7 µM (inactive) | 75 µM (inactive) | 72.6 µM (inactive) | > 100 µM (inactive) | 45.1 µM (inactive) | > 100 µM (inactive) | 32.7 µM (inactive) | 97.9 µM (inactive) | 37.1 µM (inactive) | 47.2 µM (inactive) | 46.5 µM (inactive) | 44 µM (inactive) | 48.6 µM (inactive) | 13.6 µM (inactive) | 33.4 µM (inactive) |  |  |  | 
CC1C2(C)OC(=N)C(C#N)(C(c3cccc([N+](=O)[O-])c3)O2)C1(C#N)C#N (centres undefined) | 13.6 µM (inactive) | 8 µM (inactive) | 31 µM (inactive) | 19.9 µM (inactive) | > 100 µM (inactive) | 13.5 µM (inactive) | 12.1 µM (inactive) | 13.7 µM (inactive) | 42.1 µM (inactive) | > 10 µM (inactive) | 42.6 µM (inactive) | 30.9 µM (inactive) | 22.5 µM (inactive) | 14.9 µM (inactive) | 13.8 µM (inactive) | 84.7 µM (inactive) | 40.6 µM (inactive) | 27.1 µM (inactive) |  | 
CC(C)(C)OC(=O)CN1C(=O)CC1CC(=O)c1ccccc1 (centres undefined) | 37.4 µM (inactive) | 18.2 µM (inactive) | 18.2 µM (inactive) | 16.8 µM (inactive) | 25.1 µM (inactive) | 26.7 µM (inactive) | 22.4 µM (inactive) |  | 30.2 µM (inactive) | 18.4 µM (inactive) | 18.3 µM (inactive) | 17.2 µM (inactive) | 12.4 µM (inactive) | 23.2 µM (inactive) | 20 µM (inactive) | 26.9 µM (inactive) |  | 26.1 µM (inactive) | 2.89 µM (inactive) | 15.5 µM (inactive)
CC(C)NC(=O)OCc1c(COC(=O)NC(C)C)c(-c2cc[n+](COC(=O)CC(C)(C)C)cc2)n2c1CCC2 | > 100 µM (inactive) | > 100 µM (inactive) | > 100 µM (inactive) |  | > 100 µM (inactive) |  | > 100 µM (inactive) |  |  | > 100 µM (inactive) | > 100 µM (inactive) | > 100 µM (inactive) | > 100 µM (inactive) | > 100 µM (inactive) | > 100 µM (inactive) | > 100 µM (inactive) |  | > 100 µM (inactive) | 42.4 µM (inactive) | > 100 µM (inactive)
O=C1N/N=C\c2ccc(cc2)OCc2cccc(n2)COc2ccc(cc2)/C=N\NC1=O | > 25 µM (inactive) |  | > 25 µM (inactive) | > 25 µM (inactive) | > 25 µM (inactive) | > 25 µM (inactive) |  |  | > 25 µM (inactive) | > 25 µM (inactive) | > 25 µM (inactive) | > 25 µM (inactive) | > 25 µM (inactive) | > 25 µM (inactive) | > 25 µM (inactive) | > 25 µM (inactive) | 14.6 µM (inactive) | 13.6 µM (inactive) | > 25 µM (inactive) | > 25 µM (inactive)
Cc1cccc(NC(Nc2cccc(C)c2)=C(C(Cl)=C(Cl)Cl)[N+](=O)[O-])c1 |  | 5.98 µM (inactive) | 11.6 µM (inactive) | 16.4 µM (inactive) | 3.35 µM (inactive) | 14.2 µM (inactive) | 14.7 µM (inactive) | 11.9 µM (inactive) | 12.4 µM (inactive) | 9.31 µM (inactive) | 2.28 µM (inactive) | 19.9 µM (inactive) | 22.3 µM (inactive) | 7.59 µM (inactive) |  | 14 µM (inactive) | 25.2 µM (inactive) |  | 3.81 µM (inactive) | 6.52 µM (inactive)
Cc1cc(C2(c3cc(C)c(O)c4ncccc34)OC(=O)c3ccccc32)c2cccnc2c1O | 0.252 µM (active) | 0.0231 µM (active) | 0.031 µM (active) | 0.262 µM (active) | 0.01 µM (active) | < 0.001 µM (active) | 0.00953 µM (active) | 0.0382 µM (active) | > 10 µM (inactive) | 0.0056 µM (active) | 0.0378 µM (active) | 0.265 µM (active) | < 0.001 µM (active) | 0.0353 µM (active) | 0.0247 µM (active) | 0.0299 µM (active) | 0.069 µM (active) | 0.0127 µM (active) |  | 0.01 µM (active)
O=C1Nc2ccc(Br)cc2/C1=N/S(=O)(=O)O | > 100 µM (inactive) | 16.1 µM (inactive) | 34.8 µM (inactive) | 6.61 µM (inactive) | 28.4 µM (inactive) | 29 µM (inactive) | 35.6 µM (inactive) | 29 µM (inactive) | 14.5 µM (inactive) | 40.7 µM (inactive) | 55.2 µM (inactive) | 13.3 µM (inactive) | 17.8 µM (inactive) | 18.4 µM (inactive) | 12.9 µM (inactive) | 33.7 µM (inactive) | 24.5 µM (inactive) | > 100 µM (inactive) |  | 31.3 µM (inactive)
